Assay results as given in paper PMC2893881 (Bioorganic & medicinal chemistry, 2010).
Where two headings read alike, the source gives them in different places.

Columns and labels:
TbCatB = TbCatB (Trypanosoma brucei, UniProt Q6R7Z5); assay: Cysteine protease inhibition assay, TbCatB; format: biochemical; conditions: TbCatB 258 nM, Z-Phe-Arg-AMC 10 μM, pH 5.5
[1] = tested on: Jurkat cells (clone E6-1); assay: Jurkat cell cytotoxicity assay; format: cell-based; conditions: for Selectivity Index = (IC50 Jurkat) / (IC50 T. brucei): Jurkat vs T. brucei; for IC50: read-out: IC50 (μM) Jurkat
rhodesain = rhodesain (Trypanosoma brucei rhodesiense, UniProt Q95PM0); assay: Cysteine protease inhibition assay, rhodesain; format: biochemical; conditions: for IC50 (μM) Cysteine Protease rho (rhodesain): rhodesain 4 nM, Z-Phe-Arg-AMC 10 μM, pH 5.5
T. brucei brucei = assay: Trypanosoma brucei brucei growth inhibition assay; format: cell-based; conditions: bloodstream forms clone 427-221a, 40 hours, ATP-bioluminescence, ± standard deviation of the mean
animals = conditions: cited from earlier work
[2] = tested on: human lung carcinoma (A549) cells; conditions: at 1 μM; cited from earlier work
patients = conditions: clinical use, second stage sleeping sickness; cited from earlier work
[3] = Jurkat cells, 40 hr, ATP-bioluminescence

In the case of `CS[C@]1(CO)C(=O)N2[C@H]3C(=CC=C[C@@H]3O)C[C@@]2(SC)C(=O)N1C` [Compound 3, bis(methylthio)gliotoxin], the “IC50 (μM) Cysteine Protease Tbc (TbcatB)” value (TbCatB) is reported as “inactivity”, the “IC50 (μM) Jurkat” value [1, 3] is reported as “not being toxic” and the “IC50 (μM) Cysteine Protease rho (rhodesain)” value (“IC50 … (rhodesain)” for short) (rhodesain) is reported as “inactivity”.
In the case of `CS[C@]1(CO)C(=O)N2c3c(O)cccc3C[C@@]2(SC)C(=O)N1C` [Compound 4, dehydrobis(methylthio)gliotoxin], the “Selectivity Index = (IC50 Jurkat) / (IC50 T. brucei)” value [1] is reported as over 15, the “IC50 … (rhodesain)” value (rhodesain) is reported as “binds to rhodesain” and the “IC50 (μM) T. brucei” value (T. brucei brucei) is reported as “trypanocidal in the low micromolar range”.
With `CN1C(=O)[C@@]23C[C@]4([C@]56C[C@@]78SS[C@@](CO)(C(=O)N7[C@H]5Nc5ccccc56)N(C)C8=O)c5ccccc5N[C@@H]4N2C(=O)[C@]1(CO)SS3` [Compound 12, chaetocin] the “IC50 (μM) Jurkat” value [1, 3] was “substantial toxicity to mammalian cells”, the “Selectivity Index = (IC50 Jurkat) / (IC50 T. brucei)” value [1] was “low (Toxic to Jurkat cells at <1 μM)” and the “IC50 (μM) T. brucei” value (T. brucei brucei) was “nanomolar activity”.
With `CN1C(=O)[C@]23CC4=CC=C[C@H](O)[C@H]4N2C(=O)[C@@]1(CO)SS3` [Compound 10, gliotoxin, reference compound] the “IC50 (μM) Cysteine Protease Tbc (TbcatB)” value (TbCatB) was “showed inhibition of TbCatB”, the “IC50 (μM) Jurkat” value [1, 3] was “substantial toxicity to mammalian cells” and the “Selectivity Index = (IC50 Jurkat) / (IC50 T. brucei)” value [1] was “low ^g (Toxic to Jurkat cells at <1 μM)”. For the same compound, the “IC50 (μM) T. brucei” value (T. brucei brucei) was “nanomolar activity”.
With `CS[C@]1(Cc2c[nH]c3ccccc23)NC(=O)[C@](CO)(SC)N(C)C1=O` [Compound 8, chetoseminudin B] the “IC50 (μM) Cysteine Protease Tbc (TbcatB)” value (TbCatB) was “inactivity” and the “IC50 … (rhodesain)” value (rhodesain) was “inactivity”.
For fumitremorgin B [Compound 19], the “Selectivity Index = (IC50 Jurkat) / (IC50 T. brucei)” value [1] is listed as 5.3, the IC50 [1, 3] is listed as 104 µM and the tremors in animals (animals) is listed as “cause tremors in animals”. For the same compound, the IC50 (T. brucei brucei; read-out: IC50 (μM) T. brucei) was 19.5 ± 5.9 µM.
For phenylahistin [Compound 2a], the “cell cycle inhibition activity” value [2] is given as “cell cycle inhibition activity in the G2/M phase”.
In the case of `COc1ccc2c3c4n(c2c1)[C@H](C=C(C)C)OOC(C)(C)C[C@@H]4N1C(=O)[C@@H]2CCCN2C(=O)[C@]1(O)[C@H]3O` [Compound 17, verruculogen], the tremors in animals (animals) is listed as “cause tremors in animals”.
For `CN1C(=O)[C@]23SS[C@@]1(C)C(=O)N2[C@H]1Nc2ccccc2[C@@]1([C@@]12c4ccccc4N[C@@H]1N1C(=O)[C@]4(CO)SS[C@]1(C(=O)N4C)[C@H]2O)[C@@H]3O` [Compound 11, verticillin B], the “IC50 (μM) Jurkat” value [1, 3] was “substantial toxicity to mammalian cells”, the “Selectivity Index = (IC50 Jurkat) / (IC50 T. brucei)” value [1] was “low (Toxic to Jurkat cells at <1 μM)” and the “IC50 (μM) T. brucei” value (T. brucei brucei) was “nanomolar activity”.
In the case of `Nc1nc(N)nc(Nc2ccc([As]3SCC(CO)S3)cc2)n1` (stereo not drawn) [Compound 25, melarsoprol], the mortality rate (patients) is listed as “approximately 5%”.
In the case of `COc1ccc2c3c([nH]c2c1)C(C=C(C)C)N1C(=O)C2CCCN2C(=O)C1(O)C3O` (stereo not drawn) [Compound 20, 12,13-dihydroxyfumitremorgin C], the IC50 ([1]; Homo sapiens, Jurkat, 40 h) is reported as 97.2 µM, the “Selectivity Index = (IC50 Jurkat) / (IC50 T. brucei)” value [1] is reported as over 15 and the IC50 (rhodesain) is reported as 10.9 µM. The “IC50 … (rhodesain)” value (rhodesain) was “binds to rhodesain” and the “IC50 (μM) T. brucei” value (T. brucei brucei) was “trypanocidal in the low micromolar range”.
In the case of `CS[C@]1(CO)C(=O)N2[C@H]3C(=CC=C[C@@H]3OC(C)=O)C[C@@]2(SC)C(=O)N1C` [Compound 7, 6-acetylbis(methylthio)gliotoxin], the “Selectivity Index = (IC50 Jurkat) / (IC50 T. brucei)” value [1] is reported as over 15, the “IC50 … (rhodesain)” value (rhodesain) is reported as “binds to rhodesain” and the “IC50 (μM) T. brucei” value (T. brucei brucei) is reported as “trypanocidal in the low micromolar range”.
